The source made the active and inactive calls.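 How the source made its calls: active means at a dose no more than twice the top valid tested dose, the fitted curve drops below -35% activity change; inactive means the rest, rising-direction activity included.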
Assay: NIH3T3 cell viability loss, ATP content – CellTiter-Glo luminescence, cherry-pick, set 2, cytotoxicity control for HSP40 inhibitor project, dose response (AID 624265);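 further: cells exposed to compound for 48 hours before the ATP read; 0% = median neutral control signal and -100% = no luminescence left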
Settings: NIH3T3 viability, CellTiter-Glo ATP luminescence; at 50 µM (top of the series)

Compound	activity change, negative = toxicity
CCCCCCC(Cl)(Cn1ccnc1)c1ccccc1 (stereo not drawn)	16% (inactive)
Cc1cccc(Oc2nc(-c3ccccn3)nc3ccccc23)c1	18.9% (inactive)
Clc1ccccc1C(c1ccccc1)(c1ccccc1)n1ccnc1	10.3% (inactive)
O=C(N/N=C/c1ccc[nH]1)c1sc2ccccc2c1Cl	-15.3% (inactive)
CCCn1c2ccccc2c2cc(C(=O)O)ccc21	-3.19% (inactive)
CC12CC3(C)CC(C)(C1)CC(NC(=O)N1CCCC1)(C2)C3	17.5% (inactive)
CN(C)c1ccc(C=c2c3cc(O)ccc3n3c2cc(-c2ccccc2)[n+]3C)cc1	3.47% (inactive)
COc1cnc(-c2ccccn2)nc1Oc1ccc(C(C)(C)C)cc1	23.5% (inactive)
O=c1cc(CSc2ccc(Cl)cc2)nc(-c2ccccn2)[nH]1	20.7% (inactive)
O=C(CSc1ccc(-c2ccccn2)nn1)c1ccccc1	-10.1% (inactive)
Clc1ccc(C2=NCCN2)cc1	6.22% (inactive)
COc1cccc(C(C)=C2SC(=S)NC2=O)c1	1.04% (inactive)
Cc1cc(NS(=O)(=O)c2ccc(C3CCCCC3)cc2)no1	-14.2% (inactive)
C=C(C)COc1ccc(-c2[nH]ncc2-c2ccc(Br)cc2)c(O)c1	1.03% (inactive)
Cc1cccc(Nc2nc(-c3ccc(O)cc3O)cs2)n1	0.061% (inactive)
CC(/C=N/n1c(COc2ccccc2)n[nH]c1=S)=C\c1ccccc1	14.6% (inactive)
CCOC(=O)c1ccc(N2C(=O)CC(N3CCC(O)(c4ccc(Cl)cc4)CC3)C2=O)cc1 (stereo not drawn)	-0.824% (inactive)
COc1cnc(-c2ccccn2)nc1Sc1ccc(C)cc1	-14.4% (inactive)
COc1ccc(C(=O)On2c(-c3ccc(Br)cc3)nc3ccccc3c2=O)cc1	8% (inactive)
Cc1ccc(-c2c3c(nc4sc(C(N)=O)c(N)c24)CCCC3)o1	14.4% (inactive)
NC(=Nc1nc(-c2ccccn2)cc2ccccc12)c1ccccn1	-27.1% (inactive)
COC(=O)C1=NN(C(=O)c2cccc(Br)c2)C(O)(c2ccc(Cl)cc2)C1 (stereo not drawn)	-0.434% (inactive)
COc1cc(/C=N/O)cc(Br)c1OCc1cccc(Cl)c1	3.56% (inactive)
O=C(O)c1c(NC(=O)N2CCCC2)sc2c1CCCC2	19.6% (inactive)

Compound	activity change, negative = toxicity
CCCCCCCc1ccc(-c2ccc(O)cc2)nc1	25.5% (inactive)
CC/C(=N/NC(=O)c1ccccc1O)c1c(C)[nH]n(-c2ccccc2)c1=O	-2.64% (inactive)
C[n+]1c2cc(N)ccc2cc2ccc(N)cc21	14.2% (inactive)
CC1(C)C=Cc2c(ccc3c2OC[C@@H](c2ccc(O)cc2O)C3)O1	16.2% (inactive)
CCCCCCn1c(=O)c(C(=O)Nc2ncccc2C)c(O)c2ccccc21	6.84% (inactive)
O=C(Oc1c(Cl)cc(Cl)c2cccnc12)c1cccs1	19% (inactive)
O=c1c(CO)cc(CO)cc(CO)c1O	-3.78% (inactive)
CC(=O)NC(c1cccc([N+](=O)[O-])c1)c1ccc2cccnc2c1O (stereo not drawn)	-27.2% (inactive)
O=C(NOC(=O)c1ccccc1)c1ccccc1	-12.1% (inactive)
O=[N+]([O-])c1cccc(C=NNc2ccc3ccccc3n2)c1O	-29.6% (inactive)
Oc1c(I)cc(Cl)c2cccnc12	-13.1% (inactive)
Cc1ccc(NC(=S)c2nc3ccccc3[nH]2)c(C)c1	-2.47% (inactive)
Cc1cccc(C)c1N1C(=O)C2ON(c3ccccc3)C(c3ccncc3)C2C1=O (stereo not drawn)	15.5% (inactive)
CNc1cc(CSC)nc(SCc2ccc(Cl)cc2Cl)n1	18.6% (inactive)
CCc1ccc(CN(C)C(=O)c2cc(COc3cccc(C(F)(F)F)c3)on2)nc1	5.53% (inactive)
O/N=C(\c1ccc(Cl)cc1)c1cc2ccccc2o1	-9.72% (inactive)
c1ccc(C(=NNc2nc3ccccc3s2)c2ccccn2)cc1	11.9% (inactive)
O/N=C(\c1ccc(Cl)cc1Cl)c1ncc(C(F)(F)F)cc1Cl	-0.787% (inactive)
COc1ccc(N(C(=O)c2ccncc2)S(=O)(=O)c2ccc(F)cc2)cc1	0.026% (inactive)
CC(C)=CCc1c(O)ccc(C(=O)Cc2ccccc2)c1O	-2.45% (inactive)
Clc1ccc(C(Cn2ccnc2)OCc2c(Cl)cccc2Cl)c(Cl)c1 (stereo not drawn)	0.224% (inactive)
CCN(CC)c1ccc(/C=N/NC(=O)c2c(Cl)cnn2C)c(O)c1	-24.5% (inactive)
COC(OC)c1ccc(C#N)c(SCc2ccccc2)n1	-6.85% (inactive)
CCCc1cc(C(N)=O)c(NC(=O)c2cc(C)on2)s1	12.3% (inactive)

Compound	activity change, negative = toxicity
Cc1ccc(Nc2cc(C)nn2-c2nc(C)cc(C)n2)cc1	-3.61% (inactive)
CC1Oc2ccccc2C=C1/C=N/Nc1ccc(C(=O)O)cc1 (stereo not drawn)	1.68% (inactive)
CC1(C)C2CCC1(C)C(OC(=O)c1ccc(O)cc1)C2 (stereo not drawn)	-0.777% (inactive)
Cc1nn(CCC#N)c(N)c1C1(O)C(=O)Nc2c(Cl)cc(Cl)cc21 (stereo not drawn)	-6.69% (inactive)
COc1ccccc1-c1sc2cc3c(cc2c1C#Cc1cncn1C)OCO3	17.2% (inactive)
[O-][n+]1cccc2c(Br)cc(Br)c(O)c21	-12.1% (inactive)
COc1ccc(/C=N/Nc2cc(C)nc(-n3nc(C)cc3C)n2)cc1	-9.51% (inactive)
CCn1c(CNc2ccc(Cl)cc2)nnc1SCc1ccccc1	-7.39% (inactive)
O=c1c2ccccc2nc(-c2ccc(-c3ccccc3)cc2)n1-c1ccncc1	4% (inactive)
CCC1=NN(C(=O)c2cccc(Br)c2)C(O)(c2ccc(Br)cc2)C1 (stereo not drawn)	4.18% (inactive)
CC12CCC(O)CC1=CCC1C2CCC2(C)C3=NN=CC3CC12 (stereo not drawn)	6.4% (inactive)
CCCCc1ccc(-n2c(Cc3cccs3)n[nH]c2=S)cc1	-7.72% (inactive)
COC(=O)C1=C(C)NC(C)=C(C(=O)OCC(C)C)C1c1ccccc1[N+](=O)[O-] (stereo not drawn)	-14.8% (inactive)
COc1ccc(Sc2nc(-c3ccccn3)ncc2OC)cc1	5.95% (inactive)
COc1cnc(-c2ccccn2)nc1Sc1ccccc1	9.22% (inactive)
O=C(NCc1ccncc1)c1ccccc1Nc1ccc(SC(F)F)cc1	3.29% (inactive)
Cc1ccc(Sc2cc(C)nc(-c3ccccn3)n2)cc1	11.7% (inactive)
CC1CCN(c2ccc3c(c2)S(=O)(=O)c2ccccc2C3=O)CC1	-1.31% (inactive)
CCCCCOc1ccc(CSc2n[nH]c(C)n2)cc1	5.34% (inactive)
O=C(c1ccccc1)N1C(=O)C(c2ccccc2)Oc2ccccc21 (stereo not drawn)	5.11% (inactive)
Oc1ccccc1-c1cc(-c2ccc3c(c2)OCCO3)n[nH]1	-2.25% (inactive)
O=C(Nc1ccc(Br)c(C(F)(F)F)c1)c1ccccc1	-9.98% (inactive)
CCN(CC)C(=O)CSc1ncnc2sc(-c3ccccc3)cc12	9.41% (inactive)
COC(=O)COC(=O)c1ccccc1NC(=O)c1ccccc1	-14.7% (inactive)

Compound	activity change, negative = toxicity
O=[N+]([O-])c1ccc2c(OCc3nnc(-c4ccccc4Br)o3)ncnc2c1	-6.18% (inactive)
CC1=NN(C(N)=S)C(=O)C1N=Nc1cccc(Cl)c1C (stereo not drawn)	-14.8% (inactive)
Nc1nc(-c2ccccc2)c(-c2ccc([N+](=O)[O-])cc2)s1	15.2% (inactive)
CCCOc1ccc2ccccc2c1/C=C1\SC(=O)NC1=O	6.17% (inactive)
Cc1ccc2c(C)c3ccc4ccccc4c3c[n+]2c1	11.9% (inactive)
C=CCc1ccc(O)c(-c2ccc(O)c(CC=C)c2)c1	9.45% (inactive)
FC(F)(F)c1cccc(N2CCc3cn[nH]c32)c1	-9.14% (inactive)
CCCOc1ccc(S(=O)(=O)n2cc(F)c(=O)[nH]c2=O)cc1	10.7% (inactive)
O=C(NC(=S)N(CCc1ccccc1)CCc1ccccc1)c1ccco1	20.1% (inactive)
COC(=O)c1cccc2c1-c1ccccc1/C2=N/O	28.2% (inactive)
COc1ccc(N(C(=O)c2ccncc2)S(=O)(=O)c2ccccc2)cc1	-6.26% (inactive)
CCCCn1c(=O)c(C(=O)NCc2ccncc2)c(O)c2ccccc21	25% (inactive)
CCc1ccc(OCc2n[nH]c(=S)n2Cc2ccccc2)cc1	3.81% (inactive)
CCCCNc1c(-c2ccc(-c3ccc(OC)cc3)c(OC)c2)nc2ccccn12	2.06% (inactive)
Cc1ccc(O)c(C2=NNC(c3ccc(Cl)cc3)C2)c1 (stereo not drawn)	0.122% (inactive)
O=C(Nc1nnc(-c2cccs2)o1)c1cccc(Oc2ccccc2)c1	-7.72% (inactive)
CCC(C)Sc1cccc(-c2nc3ccccn3c2NCc2ccccc2)c1 (stereo not drawn)	-15.9% (inactive)
Cc1ccc(NC(=O)CN(C)C(=O)c2cccnc2Nc2cccc(C(F)(F)F)c2)cc1	-0.151% (inactive)
Cc1ccsc1/C=C/c1ccc2cccc(O)c2n1	-8.21% (inactive)
Cc1ccc(Sc2ccc(NC(=O)CCl)cc2)cc1C	2.95% (inactive)
COc1ccc(O)c(C(=O)CC(=O)c2ccccc2C)c1	0.039% (inactive)

Source: PubChem BioAssay AID624265 (Broad Institute, 2012)
